In DBAASP:
≈ marks a conversion by molar mass, not a printed value.

Legend:
Assay in all cases: ≥ marks a high value that may be exact or a test limit, other limits are often not marked, values filed in µg/mL are converted to µM
[1] = tested on: Acinetobacter baumannii
[2] = tested on: Bacillus cereus ATCC 11778
[3] = tested on: Enterococcus faecalis ATCC 29212
[4] = tested on: Escherichia coli ATCC 25922
[5] = tested on: Escherichia coli O157:H7
[6] = tested on: Listeria monocytogenes 10403s
[7] = tested on: Pseudomonas aeruginosa ATCC 27853
[8] = tested on: Salmonella enterica subsp. enterica serovar Typhimurium ATCC 13311
[9] = tested on: Shigella sonnei ATCC 11060
[10] = tested on: Staphylococcus aureus ATCC 25923
[11] = tested on: Staphylococcus epidermidis ATCC 12228
[12] = tested on: Vibrio cholerae O1 Inaba
[13] = tested on: Escherichia coli NCTC 10418
[14] = tested on: Staphylococcus aureus NCTC 12981
[15] = tested on: Acinetobacter baumannii 7226/16
[16] = tested on: Escherichia coli ESBL 521/17
[17] = tested on: Escherichia coli ML-35p
[18] = tested on: Klebsiella pneumoniae ESBL 344/17
[19] = tested on: Pseudomonas aeruginosa 522/17
[20] = tested on: Staphylococcus aureus 1399/17
[21] = tested on: Staphylococcus aureus ATCC 33591
[22] = tested on: Staphylococcus aureus SG511
[23] = tested on: Acinetobacter baumannii LMG 01041
[24] = tested on: Escherichia coli LMG 15862
[25] = tested on: Klebsiella aerogenes LMG 02094
[26] = tested on: Klebsiella pneumoniae LMG 20218
[27] = tested on: Pseudomonas aeruginosa LMG 6395
[28] = tested on: Aeromonas hydrophila
[29] = tested on: Vibrio harveyi
[30] = tested on: Acinetobacter baumannii ATCC 19606
[31] = tested on: Candida albicans ATCC 90028
[32] = tested on: Cryptococcus neoformans ATCC 208821
[33] = tested on: Klebsiella pneumoniae ATCC 700603
[34] = tested on: Staphylococcus aureus ATCC 43300
[35] = tested on: Staphylococcus aureus SH1000
[36] = tested on: Escherichia coli W3110
[37] = tested on: Klebsiella pneumoniae ATCC BAA-1705
[38] = tested on: Cryptococcus neoformans ATCC 32264
[39] = tested on: Acinetobacter baumannii ATCC BAA-747
[40] = tested on: Enterococcus faecium ATCC 700221
[41] = tested on: Salmonella enterica ATCC 6539

CC[C@H](C)[C@H](NC(=O)[C@H](CCCN=C(N)N)NC(=O)[C@H](CCCCN)NC(=O)[C@H](CCCCN)NC(=O)[C@@H](NC(=O)[C@H](CCCCN)NC(=O)[C@H](CCC(=O)O)NC(=O)[C@H](CCCCN)NC(=O)[C@@H](N)CCCN=C(N)N)[C@@H](C)CC)C(=O)NCC(=O)N[C@@H](CCCCN)C(=O)N[C@H](C(=O)N[C@@H](CC(=O)O)C(=O)N[C@@H](CCCN=C(N)N)C(=O)N[C@@H](CC(C)C)C(N)=O)[C@@H](C)CC [RKEKIKKRIGKIDRL]
MIC [1]: ≥ 133 µM
MIC [2]: ≥ 133 µM
MIC [3]: > 133 µM
MIC [4]: > 133 µM
MIC [5]: ≥ 133 µM
MIC [6]: ≥ 133 µM
MIC [7]: > 133 µM
MIC [8]: ≥ 133 µM
MIC [9]: ≥ 133 µM
MIC [10]: > 133 µM
MIC [11]: > 133 µM
MIC [12]: ≥ 133 µM

NC(=O)CC[C@H](NC(=O)[C@H](CCCN=C(N)N)NC(=O)[C@H](CCCN=C(N)N)NC(=O)[C@@H](N)Cc1c[nH]c2ccccc12)C(=O)N[C@@H](CCCN=C(N)N)C(=O)N[C@@H](Cc1c[nH]c2ccccc12)C(N)=O [WRRQRW]
MIC [13]: ≥ 130 µM
MIC [14]: ≥ 130 µM

CC[C@H](C)[C@H](NC(=O)[C@H](CCCN=C(N)N)NC(=O)[C@@H](NC(=O)[C@@H]1CCCN1C(=O)[C@H](Cc1c[nH]c2ccccc12)NC(=O)[C@@H]1CCCN1C(=O)[C@H](CCCN=C(N)N)NC(=O)[C@H](CCCN=C(N)N)NC(=O)[C@H](Cc1ccccc1)NC(=O)[C@@H]1CCCN1C(=O)[C@H](CC(C)C)NC(=O)[C@H](CCCN=C(N)N)NC(=O)[C@H](Cc1ccccc1)NC(=O)[C@@H](N)CCCN=C(N)N)[C@@H](C)CC)C(=O)N[C@@H](Cc1cnc[nH]1)C(=O)N1CCC[C@H]1C(=O)N1CCC[C@H]1C(=O)N1CCC[C@H]1C(=O)N[C@@H](Cc1ccccc1)C(=O)N[C@@H](Cc1ccc(O)cc1)C(=O)N1CCC[C@H]1C(=O)N[C@@H](Cc1c[nH]c2ccccc12)C(=O)N1CCC[C@H]1C(=O)N[C@@H](Cc1ccccc1)C(=O)N[C@@H](CCCN=C(N)N)C(=O)N[C@@H](CCCN=C(N)N)C(=O)N[C@@H](Cc1ccccc1)C(=O)N[C@@H](CC(C)C)C(=O)O [RFRLPFRRPWPIRIHPPPFYPWPFRRFL]
MIC [15]: 11.3 µM (≈ 42.4 µg/mL)
MIC [16]: 4 µM (≈ 15 µg/mL)
MIC [17]: 4 µM (≈ 15 µg/mL)
MIC [18]: 8 µM (≈ 30 µg/mL)
MIC [19]: 16 µM (≈ 60 µg/mL)
MIC [20]: 8 µM (≈ 30 µg/mL)
MIC [21]: 8 µM (≈ 30 µg/mL)
MIC [22]: 0.5 µM (≈ 1.87 µg/mL)

CC[C@H](C)[C@H](NC(=O)[C@H](CCCN=C(N)N)NC(=O)[C@H](CCCCN)NC(=O)[C@H](CCCN=C(N)N)NC(=O)[C@@H](NC(=O)[C@@H](N)CCCN=C(N)N)[C@@H](C)CC)C(=O)N[C@@H](CCCCN)C(=O)N[C@@H](CCCCN)C(=O)N[C@@H](Cc1c[nH]c2ccccc12)C(=O)N[C@@H](CC(C)C)C(=O)N[C@@H](CCCN=C(N)N)C(N)=O [RIRKRIKKWLR]
MIC [23]: ≥ 256 µM
MIC [24]: 16 µM (≈ 24.8 µg/mL)
MIC [25]: ≥ 256 µM
MIC [26]: ≥ 256 µM
MIC [27]: 16 µM (≈ 24.8 µg/mL)

CC[C@H](C)[C@H](NC(=O)[C@H](C)NC(=O)[C@H](CCCN=C(N)N)NC(=O)[C@H](Cc1cnc[nH]1)NC(=O)[C@@H](NC(=O)[C@H](C)NC(=O)[C@H](CCCN=C(N)N)NC(=O)[C@@H](NC(=O)CNC(=O)[C@H](Cc1cnc[nH]1)NC(=O)[C@H](CO)NC(=O)[C@@H](NC(=O)[C@H](Cc1c[nH]c2ccccc12)NC(=O)CNC(=O)[C@@H](NC(=O)[C@@H](NC(=O)[C@H](Cc1cnc[nH]1)NC(=O)[C@H](Cc1cnc[nH]1)NC(=O)[C@@H](NC(=O)[C@@H](N)Cc1ccccc1)[C@@H](C)CC)[C@@H](C)CC)[C@@H](C)CC)[C@@H](C)CC)C(C)C)[C@@H](C)CC)C(=O)N[C@@H](Cc1cnc[nH]1)C(N)=O [FIHHIIGWISHGVRAIHRAIH]
MIC [28]: 16 µM (≈ 39.5 µg/mL)
MIC [29]: 8 µM (≈ 19.8 µg/mL)

CC[C@H](C)[C@H](NC(=O)[C@H](CC(=O)O)NC(=O)[C@H](Cc1ccccc1)NC(=O)[C@H](CC(C)C)NC(=O)CN)C(=O)N[C@H](C(=O)N[C@@H](CCCCN)C(=O)N[C@@H](CCCCN)C(=O)N[C@H](C(=O)N[C@H](C(=O)NCC(=O)N[C@@H](C)C(=O)N[C@@H](CC(C)C)C(=O)NCC(N)=O)C(C)C)C(C)C)C(C)C [GLFDIVKKVVGALG]
MIC [30]: > 23 µM
MIC [31]: 23 µM (≈ 32.5 µg/mL)
MIC [32]: 23 µM (≈ 32.5 µg/mL)
MIC [4]: > 23 µM
MIC [33]: > 23 µM
MIC [7]: > 23 µM
MIC [34]: > 23 µM
MIC [35]: ≥ 50 µM

CC[C@H](C)[C@H](N)C(=O)N[C@@H](CC(C)C)C(=O)N[C@@H](Cc1c[nH]c2ccccc12)C(=O)N[C@@H](C)C(=O)N[C@@H](CCCCN)C(=O)N[C@@H](Cc1c[nH]c2ccccc12)C(=O)NCC(=O)N[C@@H](CC(C)C)C(=O)N[C@@H](CCCCN)C(=O)N[C@@H](CC(C)C)C(=O)N[C@@H](CC(C)C)C(=O)N[C@@H](CCCN=C(N)N)C(=O)N[C@@H](Cc1ccc(O)cc1)C(=O)N[C@@H](CCCN=C(N)N)C(=O)N[C@@H](CCCN=C(N)N)C(=O)N[C@H](C(=O)N[C@@H](Cc1ccc(O)cc1)C(=O)O)[C@@H](C)CC [ILWAKWGLKLLRYRRIY]
MIC [36]: 4 µM (≈ 9 µg/mL)
MIC [37]: ≥ 64 µM

NCCCC[C@H](NC(=O)[C@H](CCCCN)NC(=O)[C@H](CCC(N)=O)NC(=O)[C@@H](N)CCCN=C(N)N)C(N)=O [RQKK]
MIC [38]: ≥ 100 µM

NCC(=O)NCC(=O)N[C@@H](Cc1cnc[nH]1)C(=O)NCC(=O)N[C@@H](Cc1c[nH]c2ccccc12)C(=O)N[C@@H](CCCN=C(N)N)C(=O)N[C@@H](Cc1c[nH]c2ccccc12)C(=O)N[C@@H](Cc1ccc(O)cc1)C(=O)N[C@@H](CS)C(=O)N[C@@H](CCCN=C(N)N)C(N)=O [GGHGWRWYCR]
MIC [39]: 25 µM (≈ 31.9 µg/mL)
MIC [40]: 25 µM (≈ 31.9 µg/mL)
MIC [4]: 3 µM (≈ 3.83 µg/mL)
MIC [33]: 25 µM (≈ 31.9 µg/mL)
MIC [7]: 25 µM (≈ 31.9 µg/mL)
MIC [41]: 6 µM (≈ 7.66 µg/mL)
MIC [34]: 3 µM (≈ 3.83 µg/mL)
